Results taken from US20090305225A1, “Inhibition of Creatine Uptake to Promote Weight Loss” (priority 2005, published 2009).

How the values were obtained:
Assay type in all cases: in vivo, rat
[1] = tested on: hypothalamic creatine and phosphocreatine; experiment: Creatine assay (HPLC) of hypothalamic blocks; details: 48 hours after 0.4 um/kg
Experimental: Hypothalamic blocks were rapidly dissected from animals treated icv with vehicle or CoPP at the indicated doses and snap-frozen in liquid nitrogen. They were stored at -80 degrees C. until they were crushed into a powder under liquid nitrogen and homogenized in 0.5 M PCA. Samples were then centrifuged at 4 degrees C. for 10 minutes at 15,000×g and the resulting supernatant neutralized with 1 M KOH. HPLC analysis was performed essentially as described. Samples were injected onto a Partisil 10 SAX analytical column which was eluted […] starting with Buffer A (0.01M H2PO4) and changing to Buffer B ([…]). The column was run on a Waters HPLC equipped with a Waters 996 Photodiode Array Detector and a Waters 717+ Auto Sampler. Both creatine and phosphocreatine standards were run with each sample set. Results are expressed as nanomoles per mg wet weight.

[2] = tested on: 11G2L (creatine transporter mRNA); experiment: Northern blot of 11G2L in hypothalamic RNA
Experimental: Northern Blots were used to confirm the results we obtained from the differential display. Six additional rats from each group (saline, CoPP, and fasted) were used in Northern Blot experiments. Total RNA (15 ug) extracted from the hypothalami of these rats was loaded on 1.3% formaldehyde-agarose gels. After 3.5 hours running at 56V, the gels were transferred to Hybrond-N+ membrane (Amersham, Piscataway, N.J.). The cloning inserts were released from PCR-TRAP Vectors by PCR amplification and then gel-purified with the Wizard®DNA Clean-up System (Promega). The inserts were labeled with [alpha^32P]dCTP (Perkin Elmer) using a random primers DNA labeling kit (Invitrogen, San Diego, Calif.). Labeled probe (25 ng) was denatured and then hybridized with a membrane which had been pre-incubated for 15 min in 15 ml Rapidhyb buffer (Amersham) in a Roller-Blot Hybridizer (Techne HB-3D, Cambridge, UK) for 1 hour. After washing under different stringencies, depending on the probes used, the membranes were exposed overnight to film. The autoradiographs were scanned using a GS-700 imaging densitometer (BioRad, Inc., Hercules, Calif.) and analyzed using Quantity One software (BioRad). A series of primer sets were designed using available sequences for inserts or for related mRNA cds.

[3] = tested on: creatine transporter (CrT) mRNA; experiment: Real-Time PCR of creatine transporter mRNA in hypothalami of CoPP-treated rats; details: hypothalamus, 48 hours after icv, normalized to L32 mRNA, mean ± SEM
Experimental: RNA was purified with RNAase-free DNase (Promega) at 37 degrees C. for 30 min. The first strand of cDNA was synthesized by adding 1 ug of purified RNA from each sample to 20 ul containing MMLV reverse transcriptase (Invitrogen Life Tech). Creatine transporter (CrT) gene expression was further quantatified by Real-Time PCR using sense primer: 5′[…]′ (SEQ ID NO: 1); antisense primer: 5′[…]-3′ (SEQ ID NO:2) and TaqMan probe: 5′[…]-3′ (SEQ ID NO: 3) (MMG-Biotech). The rat ribosomal protein L32 gene was used as a loading control. Each cDNA sample (1 ul) derived from the 20 ul reverse transcription reaction and 1 ul RNA template was mixed with 24 ul master mixture (Perkin Elmer) in a 96-well TaqMan plate. The PCR was run in an ABI prism 7700 thermocycler (Applied Biosystems) at 50 degrees C. for 2 min and 95 degrees C. for 10 min; this was followed by 95 degrees C. for 15 sec and 60 degrees C. for 1 min for 40 cycles. The data were analyzed using software supplied with the ABI prism 7700.

## C=Cc1c(C)c2cc3[nH]c(cc4nc(cc5nc(cc1[nH]2)C(C)=C5CCC(=O)[O-])C(CCC(=O)[O-])=C4C)c(C)c3C=C.[Co+2] [CoPP, Cobaltic protoporphyrin IX]
[1]; failed to meet statistical significance
  decrease in hypothalamic phosphocreatine concentrations: about 40%
[1]; versus vehicle-treated or fasted rats, p=0.008
  decrease in hypothalamic creatine concentrations: about 20%
[2]; Northern densitometry normalized to L32, p<0.02
  increase of 11G2L expression compared to vehicle-treated animals (fed or fasted): approximately 20%
[2]; hypothalamus, 48 hours after icv, normalized to L32 mRNA
  Northern Blot Densitometry of 11G2L: 1.023±* arbitrary units
[3]
  Real-Time PCR: 0.97 ± 0.050 arbitrary units
